For experiment [1], the target named is HLA A*3001 (Homo sapiens, UniProt P04439, D140H/D185E/E176W/F33S/G80R/H175R/K168Q/R138E/R41S). Description: biochemical. In kind it is binding.
Experiment [2] addresses HLA A*3201 (Homo sapiens, UniProt P04439, A270S/D101S/D185E/E176V/E277Q/F133L/G103R/G107R/G231S/H175R/I121M/I218V/I322F/K168Q/L105A/L300P/L318F/M331R/P208A/P217A/Q94H/R106L/R138Q/S129P/T104I/T323A/T345S/V100E/V321M/V358M). Description: biochemical. It counts as binding.
For experiment [3], the target named is HLA A*6802 (Homo sapiens, UniProt P04439, A269V/D140Y/D185E/E176V/E277Q/E87N/F33Y/G231S/I121R/I166T/I218V/L180W/L300P/L318F/N151K/P208A/P217A/Q86R/R138H/R169H/S129P/T345S/V36M). It counts as binding.
Experiment [4] deals with HLA B*0702 (Homo sapiens, UniProt P01889). It counts as binding. The conditions noted are these: positional scanning combinatorial 9-mer library; normalized to 1.0 for the best residue at each position.
The target of experiment [5] is HLA B*0801 (Homo sapiens, UniProt P01889, A93T/A95T/D138N/E176V/E187T/K202T/Q94N/R180D/S35A/V36M/Y33D/Y91F). Description: biochemical. It counts as binding.
Experiment [6] concerns the target HLA B*1501 (Homo sapiens, UniProt P01889, A329T/A93T/A95T/C349S/D201E/D98Y/E187L/E204Q/E69M/E70A/K202T/N87E/Q94N/R155S/R180W/S121R/S35A/S48A/V306I/V36M/Y140S/Y91S). Put plainly: biochemical. It counts as binding.
Experiment [7] concerns the target HLA B*1503 (Homo sapiens, UniProt P01889, A329T/A93T/A95T/C349S/D201E/D98Y/E187L/E204Q/K202T/N87E/Q94N/R155S/R180L/S121R/S35A/V306I/V36M/Y140S/Y91S). Put plainly: biochemical. In kind it is binding.
In experiment [8] the target is HLA B*2705 (Homo sapiens, UniProt P01889, D138H/D201E/E176V/E204Q/G107R/H137Y/K202T/N104T/N87E/Q56L/Q94K/R106L/R155S/R180L/S101D/S121N/S48T/Y140D/Y33H/Y91C). In kind it is binding. Conditions: positional scanning combinatorial 9-mer library; normalized to 1.0 for the best residue at each position.
Experiment [9] concerns the target HLA B*3501 (Homo sapiens, UniProt P01889, A329T/A93T/A95T/C349S/D201E/D98Y/E176V/E187L/E204Q/E69T/I218V/K202T/L119I/Q94N/R155S/R180L/S121R/S35A/S48A/T118I/V127L/V306I/V36M/Y140S/Y91F). It counts as binding.
Experiment [10] has as its target HLA B*5101 (Homo sapiens, UniProt P01889, A329T/A93T/A95T/C349S/D138N/D201E/D98Y/E187L/E204Q/E69T/G107R/I218V/K202T/L105A/L119W/N104I/Q94N/R106L/R155S/R180L/S101N/S121T/S35A/S48A/V306I/V36M/Y195H/Y91F). It counts as binding.
Experiment [11] addresses HLA B*5301 (Homo sapiens, UniProt P01889, A329T/A93T/A95T/C349S/D201E/D98Y/E176V/E187L/E204Q/E69T/G107R/I218V/K202T/L105A/L119I/N104I/Q94N/R106L/R155S/R180L/S101N/S121R/S35A/S48A/T118I/V127L/V306I/V36M/Y140S/Y91F). It counts as binding.
Experiment [12] has as its target HLA B*5401 (Homo sapiens, UniProt P01889, A329T/C349S/D138N/D201E/E176V/E187T/E204Q/E69G/I76V/K202T/L119W/R155S/R180L/S121T/S35A/S48A/V127L/V306I/V36M/Y140L). It counts as binding.
Experiment [13] addresses HLA B*5801 (Homo sapiens, UniProt P01889, A329T/C349S/D201E/D98Y/E176V/E187L/E204Q/E69T/G107R/I218V/I90N/K202T/L105A/L119I/N104I/N87E/Q89R/Q94S/R106L/R155S/R180L/R86G/S101N/S121R/S35A/S48A/T118I/V127L/V306I/V36M/Y140S/Y91M). In kind it is binding.
In experiment [14] the target is HLA B*5802 (Homo sapiens, UniProt P01889, A329T/C349S/D201E/D98Y/E176V/E187L/E204Q/E69T/G107R/I218V/I90N/K202T/L105A/N104I/N87E/Q89R/Q94S/R106L/R155S/R180L/R86G/S101N/S121W/S35A/S48A/V127L/V306I/V36M/Y140S/Y91M). It counts as binding.
The target in experiment [15] is H-2 D^b (Mus musculus, UniProt P01899). It counts as binding.
Experiment [16] has as its target H-2 D^d (Mus musculus, UniProt P01900). It counts as binding.
Experiment [17] concerns the target H-2 K^k (Mus musculus, UniProt P04223). It counts as binding.
Experiment [18] concerns the target HLA A*0201 (Homo sapiens, UniProt P04439, D140Y/D185E/D98H/E176V/E277Q/G131W/G231S/I119V/I121R/I166T/I218V/L300P/L318F/N151K/N90K/P208A/P217A/Q86G/Q94H/R138H/R169H/T345S). Conditions: positional scanning combinatorial 9-mer library; normalized to 1.0 for the best residue at each position.

Sequence of H-2 K^k (P01887 21-119): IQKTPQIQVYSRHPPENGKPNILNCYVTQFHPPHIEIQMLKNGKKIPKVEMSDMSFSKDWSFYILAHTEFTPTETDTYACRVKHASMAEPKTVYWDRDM
Sequence of H-2 K^k (P04223 22-369): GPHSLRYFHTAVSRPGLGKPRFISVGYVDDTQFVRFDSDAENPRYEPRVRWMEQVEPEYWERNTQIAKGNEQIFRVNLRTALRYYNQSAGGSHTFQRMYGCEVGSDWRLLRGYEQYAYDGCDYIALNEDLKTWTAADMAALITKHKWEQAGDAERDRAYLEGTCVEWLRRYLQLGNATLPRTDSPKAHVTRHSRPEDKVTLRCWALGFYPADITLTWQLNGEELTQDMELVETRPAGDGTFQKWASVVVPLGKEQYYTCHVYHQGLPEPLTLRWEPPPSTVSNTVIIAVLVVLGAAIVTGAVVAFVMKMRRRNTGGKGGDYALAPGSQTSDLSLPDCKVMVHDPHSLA
Sequence of H-2 D^b (P01887 21-119): as the sequence (P01887 21-119) above
Sequence of H-2 D^b (P01899 25-362): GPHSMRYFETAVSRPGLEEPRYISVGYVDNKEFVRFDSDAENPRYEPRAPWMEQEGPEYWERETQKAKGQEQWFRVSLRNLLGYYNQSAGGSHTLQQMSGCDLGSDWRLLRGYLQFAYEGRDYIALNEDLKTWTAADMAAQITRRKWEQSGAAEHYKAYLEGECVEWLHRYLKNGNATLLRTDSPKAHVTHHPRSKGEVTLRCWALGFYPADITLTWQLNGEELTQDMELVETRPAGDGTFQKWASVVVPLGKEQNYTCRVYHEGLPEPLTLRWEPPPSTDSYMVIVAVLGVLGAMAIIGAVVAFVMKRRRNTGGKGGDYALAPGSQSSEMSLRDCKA
Sequence of H-2 D^d (P01900 whole entry, looked up): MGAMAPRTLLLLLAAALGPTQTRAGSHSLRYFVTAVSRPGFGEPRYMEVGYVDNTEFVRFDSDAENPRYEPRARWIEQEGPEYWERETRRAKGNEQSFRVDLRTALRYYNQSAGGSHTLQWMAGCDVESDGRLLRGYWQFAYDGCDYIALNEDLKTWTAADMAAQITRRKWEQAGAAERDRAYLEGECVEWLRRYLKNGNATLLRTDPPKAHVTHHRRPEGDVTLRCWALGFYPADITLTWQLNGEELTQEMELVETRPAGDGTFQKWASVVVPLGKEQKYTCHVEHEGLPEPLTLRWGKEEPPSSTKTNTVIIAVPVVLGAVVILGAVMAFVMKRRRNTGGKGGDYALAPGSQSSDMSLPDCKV

For XIXXXXXXX [3064.0028], the “Normalized average relative binding affinity (ARB), HLA A*3001” value in [1] was determined as 0.18. Also, the “Normalized average relative binding affinity (ARB), HLA A*3201” value in [2] turned out to be 0.35. Besides, the “Normalized average relative binding affinity (ARB), HLA A*6802” value in experiment [3] is recorded as 0.15. The “Normalized average relative binding affinity (ARB), HLA B*0702” value in [4] is given as 0.033. In addition, the “Normalized average relative binding affinity (ARB), HLA B*0801” value in experiment [5] is recorded as 0.24. The “Normalized average relative binding affinity (ARB), HLA B*1501” value in [6] stood at 0.42. Further, in experiment [7], the “Normalized average relative binding affinity (ARB), HLA B*1503” value worked out at 0.026. In experiment [8], the “Normalized average relative binding affinity (ARB), HLA B*2705” value turned out to be 0.0022. Moreover, in [9], the “Normalized average relative binding affinity (ARB), HLA B*3501” value is 0.032. Further, the “Normalized average relative binding affinity (ARB), HLA B*5101” value in [10] is 0.047. Moreover, in experiment [11], the “Normalized average relative binding affinity (ARB), HLA B*5301” value is reported as 0.11. Further, the “Normalized average relative binding affinity (ARB), HLA B*5401” value in experiment [12] stood at 0.0071. The “Normalized average relative binding affinity (ARB), HLA B*5801” value in experiment [13] came out at 0.046. The “Normalized average relative binding affinity (ARB), HLA B*5802” value in [14] was 0.11. The “Normalized average relative binding affinity (ARB), H-2 Db” value in experiment [15] is reported as 0.076. Besides, in experiment [16], the “Normalized average relative binding affinity (ARB), H-2 Dd” value is 0.018. The “Normalized average relative binding affinity (ARB), H-2 Kk” value in experiment [17] was determined as 0.0026. Further, the “Normalized average relative binding affinity (ARB), HLA A*0201” value in experiment [18] is on record as 0.057.

XXPXXXXXX [3064.0053]: in experiment [1], the “Normalized average relative binding affinity (ARB), HLA A*3001” value came to 0.0036. In addition, the “Normalized average relative binding affinity (ARB), HLA A*3201” value in [2] is on record as 0.13. Moreover, in [3], the “Normalized average relative binding affinity (ARB), HLA A*6802” value worked out at 0.043. Also, the “Normalized average relative binding affinity (ARB), HLA B*0702” value in [4] stood at 0.014. Further, the “Normalized average relative binding affinity (ARB), HLA B*0801” value in experiment [5] is listed as 0.072. The “Normalized average relative binding affinity (ARB), HLA B*1501” value in experiment [6] is listed as 0.32. In experiment [7], the “Normalized average relative binding affinity (ARB), HLA B*1503” value came out at 0.058. In [8], the “Normalized average relative binding affinity (ARB), HLA B*2705” value is given as 0.027. For the same sequence, in experiment [9], the “Normalized average relative binding affinity (ARB), HLA B*3501” value worked out at 0.089. Also, the “Normalized average relative binding affinity (ARB), HLA B*5101” value in experiment [10] is reported as 0.42. The “Normalized average relative binding affinity (ARB), HLA B*5301” value in experiment [11] worked out at 0.010. The “Normalized average relative binding affinity (ARB), HLA B*5401” value in [12] was 0.013. In experiment [13], the “Normalized average relative binding affinity (ARB), HLA B*5801” value is reported as 0.042. The “Normalized average relative binding affinity (ARB), HLA B*5802” value in experiment [14] was 0.047. Moreover, in experiment [15], the “Normalized average relative binding affinity (ARB), H-2 Db” value is 0.38. Besides, in experiment [16], the “Normalized average relative binding affinity (ARB), H-2 Dd” value was 1.0. In addition, the “Normalized average relative binding affinity (ARB), H-2 Kk” value in experiment [17] is given as 0.035. Besides, in [18], the “Normalized average relative binding affinity (ARB), HLA A*0201” value worked out at 0.056.

Take XXRXXXXXX [3064.0055]: in [1], the “Normalized average relative binding affinity (ARB), HLA A*3001” value came to 1.0. Also, the “Normalized average relative binding affinity (ARB), HLA A*3201” value in experiment [2] is given as 0.19. Moreover, the “Normalized average relative binding affinity (ARB), HLA A*6802” value in [3] was 0.018. Also, the “Normalized average relative binding affinity (ARB), HLA B*0702” value in experiment [4] was determined as 0.63. In [5], the “Normalized average relative binding affinity (ARB), HLA B*0801” value is recorded as 1.0. In experiment [6], the “Normalized average relative binding affinity (ARB), HLA B*1501” value is reported as 0.69. For the same sequence, the “Normalized average relative binding affinity (ARB), HLA B*1503” value in experiment [7] stood at 0.25. In experiment [8], the “Normalized average relative binding affinity (ARB), HLA B*2705” value was 0.16. Besides, in experiment [9], the “Normalized average relative binding affinity (ARB), HLA B*3501” value was found to be 0.074. In experiment [10], the “Normalized average relative binding affinity (ARB), HLA B*5101” value is on record as 0.33. Also, the “Normalized average relative binding affinity (ARB), HLA B*5301” value in experiment [11] is 0.029. The “Normalized average relative binding affinity (ARB), HLA B*5401” value in [12] turned out to be 0.062. The “Normalized average relative binding affinity (ARB), HLA B*5801” value in experiment [13] amounted to 0.058. The “Normalized average relative binding affinity (ARB), HLA B*5802” value in experiment [14] was 0.38. The “Normalized average relative binding affinity (ARB), H-2 Db” value in experiment [15] is on record as 0.023. Also, the “Normalized average relative binding affinity (ARB), H-2 Dd” value in experiment [16] was 0.0031. Also, in experiment [17], the “Normalized average relative binding affinity (ARB), H-2 Kk” value is given as 0.19. In addition, the “Normalized average relative binding affinity (ARB), HLA A*0201” value in experiment [18] came to 0.019.

Source of the values: publication PMC2248166, “Quantitative peptide binding motifs for 19 human and mouse MHC class I molecules derived using positional scanning combinatorial peptide libraries” (Immunome Research, 2008).
